Experiments:
Format in all cases: in vivo, KSN nude mice
[1] = system: human esophageal squamous cell carcinoma cells TE-8; test: Biological distribution of biotinated αSQMG in tumor of tumor-bearing nude mice (TRITC-avidin staining of tumor segments); details: intravenous 40, 20 and 2 mg/kg, FIG. 1
Method: 1×10^6 of human esophageal squamous cell carcinoma cells TE-8 were transplanted into the right femoral region of 11 male KSN nude mice (Japan SLC, Inc.), and the mice were bred to form a tumor mass of about […] volume.
Thereafter, biotinated αSQMG C18:0 (formula XI) was dissolved in physiological saline solution, and 0.1 mL of the solution per administration was intravenously administered to each group comprising three mice so that the amount of the biotinated αSQMG C18:0 could be 40 mg/kg, 20 mg/kg, and 2 mg/kg. To two reference tumor bearing mice, physiological saline was administered. […]
In order to evaluate a tumor region which emits fluorescence due to TRITC, binarization imaging was performed with use of Photoshop. Thereafter, a portion (fraction) containing tumor tissues was selected from the visual field, and the number of pixels of a TRITC positive region (black color region) and the entire region were counted and the ratio of the positive region was calculated according to the formula:
The proportion (%) of biotinated αSQAP detected region=[the area of the black color region (region where the biotinated αSQMG was detected)]/[the area of the whole of the selected fraction]×100=[the number of pixels in the TRITC positive region]/[the number of pixels in the whole fraction]×100 (%) formula (A) […]

[2] = system: human colon carcinoma cells (SW480); test: Pharmacokinetics 1: concentration-time course in blood plasma, organs and tumor after intraperitoneal administration (LC/MS); details: 10 mg/kg intraperitoneal; for concentration in tumor tissues immediately after administration in comparison with other tissues / concentration in tumor tissues 24 hours after administration / residence in tumor tissues: SW480 tumor; for time of the highest concentration in blood plasma, liver, kidney, spleen and lung / time after administration at which concentration fell below the detection limit, blood plasma / time after administration at which concentration fell below the detection limit, kidney / time after administration at which concentration fell below the detection limit, liver / time after administration at which concentration fell below the detection limit, lung / time after administration at which concentration fell below the detection limit, spleen: SW480 tumor-bearing nude mice; for residence in tumor tissues: followed to 24 hours
Method: To eight-week-old male KSN nude mice (Japan SLC, Inc.), 2×10^6 of human colon carcinoma cells (SW480) were transplanted subcutaneously, two weeks later (body weight approximately 25 g, tumor volume approximately 200 mm^3) αSQMG C18:0 or αSQAP C18:0 was dissolved in physiological saline solution and administered intraperitoneally at a dose of 10 mg/kg (0.1 mL). After the administration, the mice were slaughtered chronologically with carbon dioxide; 30 minute, 1 hour, 2 hours, 4 hours, 12 hours, and 24 hours after the administration. Tissues of blood, liver, kidney, lung and spleen, and tumor tissue were then collected. At each time when tissues were collected, five animals were used.
Whole blood was collected from postcaval vein with use of an injection needle wetted with heparin sodium injection solution (10,000 unit/10 mL) to obtain blood plasma by 20 minutes of centrifugation at 6,000 g. To 90 μl of blood plasma, 5 μl of an internal standard compound (αSQMG C16:0), 5 μl of distilled water, and 4 μl of phosphoric acid were added, and denatured protein by adding 96 μl of acetonitrile. To 0.2 mL of the solution, 600 μl of 10 mM ammonium acetate solution was added, and stirred sufficiently to obtain supernatant by centrifugation at 16,000 g for 15 minutes. The supernatant was subjected to solid-phase extraction operation as described below. The solid-phase extraction was performed by washing with 1000 μl of 10 mM ammonium acetate aqueous solution and 200 μl of 10 mM ammonium acetate aqueous solution containing 10% acetonitrile, followed by elution of a test compound with 200 μl of 10 mM ammonium acetate aqueous solution containing 70% acetonitrile with use of Empore (trademark) disc cartridge (3M Company, product number 4115SD). The compound was used as a LC/MS analytical sample.
Each organ was extirpated after collection of blood and immediately frozen on dry ice. The frozen sample was subjected to frost shattering, and the weight was measured. Subsequently, ½-fold (weight ratio) internal standard compound (αSQMG C16:0) and distilled water were added, and 8-fold (weight ratio) extraction solution (2.5% NP-40, 2% phosphoric acid, 2 mM Eserine aqueous solution) was further added to the sample, followed by homogenization. The homogenized solution was subjected to protein denaturation with acetonitrile and solid phase extraction in the same manner as the above-mentioned treatment of blood plasma to obtain an analytical sample.
10 μl of the analytical sample was separated with a reverse phase HPLC system equipped with Capcell Pak MG column (particle diameter; 3 μm, column size; 2.1×50 mm, Shiseido Co., Ltd.). HPLC was performed with 68% acetonitrile and a single solvent of 10 mM ammonium acetate aqueous solution at a flow rate of 0.2 mL per minute. Mass spectrum was measured in a negative mode, and the peak area ratio of the internal standard compound was calculated by integration of the peak area from chromatogram corresponding to each ion by measuring a precursor ion; m/z=583.1, fragment ion; m/z=224.7 and m/z=298.8 for αSQMG C18:0, a precursor ion; m/z=567.1, fragment ion; m/z=224.7 and m/z=283.1 for αSQAP C18:0, and a precursor ion; m/z=555.1, fragment ion; m/z=224.7 and m/z=298.8 for a internal standard compound αSQMG C16:0. As a method of quantitative analysis, an internal standard analysis was adopted. More specifically, a standard curve was drawn based on the peak area ratio of the internal standard compound by analyzing the sample to which the test compound was added, to determine the quantity of the test compound.

[3] = system: human sophageal squamous cell carcinoma cells TE-8; test: Pharmacokinetics 2: concentration-time course in blood plasma, organs and tumor after intravenous administration (LC/MS); details: 1 mg/kg intravenous
Method: To eight-week-old male KSN nude mice (Japan SLC, Inc.), 2×10^6 of human colon carcinoma cells (SW480) were transplanted subcutaneously, two weeks later (body weight approximately 25 g, tumor volume approximately 200 mm^3) αSQMG C18:0 or αSQAP C18:0 was dissolved in physiological saline solution and administered intraperitoneally at a dose of 10 mg/kg (0.1 mL). After the administration, the mice were slaughtered chronologically with carbon dioxide; 30 minute, 1 hour, 2 hours, 4 hours, 12 hours, and 24 hours after the administration. Tissues of blood, liver, kidney, lung and spleen, and tumor tissue were then collected. At each time when tissues were collected, five animals were used. Whole blood was collected from postcaval vein with use of an injection needle wetted with heparin sodium injection solution (10,000 unit/10 mL) to obtain blood plasma by 20 minutes of centrifugation at 6,000 g. To 90 μl of blood plasma, 5 μl of an internal standard compound (αSQMG C16:0), 5 μl of distilled water, and 4 μl of phosphoric acid were added, and denatured protein by adding 96 μl of acetonitrile. To 0.2 mL of the solution, 600 μl of 10 mM ammonium acetate solution was added, and stirred sufficiently to obtain supernatant by centrifugation at 16,000 g for 15 minutes. The supernatant was subjected to solid-phase extraction operation as described below. The solid-phase extraction was performed by washing with 1000 μl of 10 mM ammonium acetate aqueous solution and 200 μl of 10 mM ammonium acetate aqueous solution containing 10% acetonitrile, followed by elution of a test compound with 200 μl of 10 mM ammonium acetate aqueous solution containing 70% acetonitrile with use of Empore (trademark) disc cartridge (3M Company, product number 4115SD). The compound was used as a LC/MS analytical sample. Each organ was extirpated after collection of blood and immediately frozen on dry ice. The frozen sample was subjected to frost shattering, and the weight was measured. Subsequently, ½-fold (weight ratio) internal standard compound (αSQMG C16:0) and distilled water were added, and 8-fold (weight ratio) extraction solution (2.5% NP-40, 2% phosphoric acid, 2 mM Eserine aqueous solution) was further added to the sample, followed by homogenization. The homogenized solution was subjected to protein denaturation with acetonitrile and solid phase extraction in the same manner as the above-mentioned treatment of blood plasma to obtain an analytical sample. 10 μl of the analytical sample was separated with a reverse phase HPLC system equipped with Capcell Pak MG column (particle diameter; 3 μm, column size; 2.1×50 mm, Shiseido Co., Ltd.). HPLC was performed with 68% acetonitrile and a single solvent of 10 mM ammonium acetate aqueous solution at a flow rate of 0.2 mL per minute. Mass spectrum was measured in a negative mode, and the peak area ratio of the internal standard compound was calculated by integration of the peak area from chromatogram corresponding to each ion by measuring a precursor ion; m/z=583.1, fragment ion; m/z=224.7 and m/z=298.8 for αSQMG C18:0, a precursor ion; m/z=567.1, fragment ion; m/z=224.7 and m/z=283.1 for αSQAP C18:0, and a precursor ion; m/z=555.1, fragment ion; m/z=224.7 and m/z=298.8 for a internal standard compound αSQMG C16:0. As a method of quantitative analysis, an internal standard analysis was adopted. More specifically, a standard curve was drawn based on the peak area ratio of the internal standard compound by analyzing the sample to which the test compound was added, to determine the quantity of the test compound. The pharmacokinetics of αSQAP C18:0 was tested by administering 1 mg/kg of αSQAP C18:0 to animals in the same manner as Example 3 except that human sophageal squamous cell carcinoma cells TE-8 were used as tumor of transplanted tumor model and that intravenous administration was adopted as substitute for interperitoneal administration.

Compound | tumor-resident amount ([1]; 9 hours after administration) | staining of tumor tissues (TRITC positive region) ([1]; tumor extracted 9 hours after administration, TE-8 tumor) | concentration in tumor tissues immediately after administration in comparison with other tissues [2] | time of the highest concentration in blood plasma, liver, kidney, spleen and lung [2] | time after administration at which concentration fell below the detection limit, blood plasma [2] | time after administration at which concentration fell below the detection limit, kidney [2] | time after administration at which concentration fell below the detection limit, liver [2] | time after administration at which concentration fell below the detection limit, lung [2] | time after administration at which concentration fell below the detection limit, spleen [2] | concentration in tumor tissues 24 hours after administration [2] | residence in tumor tissues [2] | concentration in tumor tissue immediately after administration in comparison with other organs ([3]; TE-8 tumor) | time of the highest concentration in blood plasma, liver, spleen and lung ([3]; TE-8 tumor-bearing nude mice) | time after administration at which concentration fell below the detection limit, blood plasma ([3]; TE-8 tumor-bearing nude mice, blood plasma) | time after administration at which concentration fell below the detection limit, liver ([3]; TE-8 tumor-bearing nude mice, liver) | time after administration at which concentration fell below the detection limit, lung ([3]; TE-8 tumor-bearing nude mice, lung) | time after administration at which concentration fell below the detection limit, spleen ([3]; TE-8 tumor-bearing nude mice, spleen) | concentration in tumor tissue after 24 hours ([3]; TE-8 tumor, 24 hours) | course of concentration in tumor tissue after two hours ([3]; TE-8 tumor, after two hours) | residence in tumor tissues ([3]; TE-8 tumor, followed to 24 hours)
3-O-[4-O-(biotinyl-β-alanyl)-6-sulfo-α-D-quinovopyranosyl]-1-0-stearoyl-glycerol [biotinated αSQMG C18:0] | high | strongly stained according to the dose |  |  |  |  |  |  |  |  |  |  |  |  |  |  |  |  |  | 
CCCCCCCCCCCCCCCCCC(=O)OCCCO[C@H]1O[C@H](CS(=O)(=O)[O-])[C@@H](O)[C@H](O)[C@H]1O.[Na+] [αSQAP C18:0] |  |  | low | immediately after the administration | four | four | 12 h | four | four | detectable | resides for a long period | low | immediately after administration | two | two | two | 24 h | detectable | no decrease tendency | resides for a long period
CCCCCCCCCCCCCCCCCC(=O)OCC(O)CO[C@H]1O[C@H](CS(=O)(=O)[O-])[C@@H](O)[C@H](O)[C@H]1O.[Na+] (some centres unmarked) [αSQMG C18:0] |  |  | low | immediately after the administration | four | four | four | four | 12 h | detectable | resides for a long period |  |  |  |  |  |  |  |  | 

— US20100202971A1, “COMPOUND HAVING TUMOR-RESIDENT PROPERTY” (priority 2009, published 2010)
